According to ChEMBL document CHEMBL1131424 (J Med Chem, 1998):

Molecular target: T1, 5-hydroxytryptamine receptor 1A (Rattus norvegicus, UniProt P19327)
T1 sequence (P19327 whole entry): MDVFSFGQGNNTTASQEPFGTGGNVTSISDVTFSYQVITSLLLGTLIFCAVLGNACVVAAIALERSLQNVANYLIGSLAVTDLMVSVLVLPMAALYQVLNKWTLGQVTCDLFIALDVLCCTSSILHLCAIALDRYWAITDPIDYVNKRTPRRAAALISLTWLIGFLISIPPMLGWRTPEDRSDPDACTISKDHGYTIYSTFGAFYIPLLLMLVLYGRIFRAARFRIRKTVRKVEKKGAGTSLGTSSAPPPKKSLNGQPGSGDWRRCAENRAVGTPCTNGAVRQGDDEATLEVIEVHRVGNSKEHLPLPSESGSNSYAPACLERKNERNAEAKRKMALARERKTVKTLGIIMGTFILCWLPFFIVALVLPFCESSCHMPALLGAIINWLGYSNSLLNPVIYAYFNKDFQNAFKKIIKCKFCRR
Assay: Binding affinity for rat cortex 5-hydroxytryptamine 1A receptor, by displacement of 0.2 nM [3H]8-OH-DPAT radioligand

SMILES | Ki [nM]
O=C(c1ccc(Cl)c(Cl)c1)N1CCC(CNCc2cccc(Cl)n2)CC1 | 4.57
N#Cc1cccc(CNCC2CCN(C(=O)c3ccc(Cl)c(Cl)c3)CC2)n1 | 50.1
O=C(c1ccccc1)N1CCC(CNCc2cccc(-n3cccn3)n2)CC1 | 33.1
O=C(c1ccc(Cl)c(Cl)c1)N1CCC(CNCc2cccc(-n3ccnc3)n2)CC1 | 7.41
O=C(c1ccc(Cl)c(Cl)c1)N1CCC(CNCc2cccc(N3CCCC3)n2)CC1 | 1.58
CC(C)c1cccc(CNCC2CCN(C(=O)c3ccc(Cl)c(Cl)c3)CC2)n1 | 0.631
Cc1cccc(CNCC2CCN(C(=O)c3ccc(Cl)c(Cl)c3)CC2)n1 | 4.07
O=C(c1ccc(Cl)c(Cl)c1)N1CCC(CNCc2cc(-n3cccn3)ccn2)CC1 | 646
O=C(c1ccc(Cl)c(Cl)c1)N1CCC(CNCCc2cccc(-n3cccn3)n2)CC1 | 3.55
O=C(c1ccccc1Cl)N1CCC(CNCc2cccc(-n3cccn3)n2)CC1 | 132
O=S(=O)(c1ccc(Cl)c(Cl)c1)N1CCC(CNCc2cccc(-n3cccn3)n2)CC1 | 200
O=C(c1ccc(F)c(Cl)c1)N1CCC(CNCc2cccc(-n3cccn3)n2)CC1 | 1.55
NC(=O)c1cccc(CNCC2CCN(C(=O)c3ccc(Cl)c(Cl)c3)CC2)n1 | 46.8
O=C(c1ccc(Cl)c(Cl)c1)N1CCC(CNCCc2ccncc2)CC1 | > 1000
O=C(NCC#CCNCc1cccc(-n2cccn2)n1)c1ccc(Cl)c(Cl)c1 | 245
Cn1c(=O)cnn(CCCCNCc2cccc(-n3cccn3)n2)c1=O | 110
CCCN(C)c1cccc(CNCC2CCN(C(=O)c3ccc(Cl)c(Cl)c3)CC2)n1 | 11.7
CCCN(CCC)Cc1cccc(-n2cccn2)n1 | > 10000
CCCCOc1cccc(CNCC2CCN(C(=O)c3ccc(Cl)c(Cl)c3)CC2)n1 | 18.6
COc1ccc2[nH]cc(CCNCc3cccc(-n4cccn4)n3)c2c1 | 661
O=C(c1ccc(Cl)c(Cl)c1)N1CCC(CNCc2cccc(-n3cccc3)n2)CC1 | 4.27
O=C(c1cccc(Cl)c1)N1CCC(CNCc2cccc(-n3cccn3)n2)CC1 | 2.29
COC(=O)c1ccc(C(=O)N2CCC(CNCc3cccc(-n4cccn4)n3)CC2)cc1Cl | 166

SMILES | Ki [nM]
O=C(c1ccc(Cl)c(Cl)c1)N1CCC(CNCc2cccc(F)c2)CC1 | 14.8
O=C(c1ccc(Cl)c(Cl)c1)N1CCC(CNCc2cccc(-c3cnco3)n2)CC1 | 0.933
O=C(c1cc(Cl)cc(Cl)c1)N1CCC(CNCc2cccc(-n3cccn3)n2)CC1 | 26.3
O=C(c1ccc(Cl)c(Cl)c1)N1CCC(CNCCc2cccc(F)n2)CC1 | 3.16
O=C(c1ccc(Cl)c(Cl)c1)N1CCC(CNCCCc2ccccn2)CC1 | 42.7
O=C(N1CCC(CNCc2cccc(-n3cccn3)n2)CC1)C12C[C@H]3C[C@@H](C1)C[C@@H](C2)C3 | 13.2
O=C(c1ccc(Cl)c(Cl)c1)N1CCC(CNCCc2ccccn2)CC1 | 1.2
O=C(NCCNCc1cccc(-n2cccn2)n1)C12C[C@H]3C[C@@H](C1)C[C@@H](C2)C3 | 27.5
O=C(c1ccc(Cl)c(Cl)c1)N1CCC(CNCc2cc(Cl)ccn2)CC1 | 9.12
Cc1ccc(C(=O)N2CCC(CNCc3cccc(-n4cccn4)n3)CC2)cc1Cl | 1.41
O=C(c1ccc(Cl)c(Cl)c1)N1CCC(CNCc2cccc(-c3ccccc3)n2)CC1 | 7.41
O=C(c1ccc(Cl)c(Cl)c1)N1CCCC(CNCc2cccc(-n3cccn3)n2)C1 (configuration not stated) | 407
CSc1cccc(CNCC2CCN(C(=O)c3ccc(Cl)c(Cl)c3)CC2)n1 | 2.57
C[S+]([O-])c1cccc(CNCC2CCN(C(=O)c3ccc(Cl)c(Cl)c3)CC2)n1 (configuration not stated) | 46.8
O=C(c1ccc(Cl)c(Cl)c1)N1CCC(CNCc2cccc(-c3ccc[nH]3)n2)CC1 | 6.03
Fc1ccc(C(CCCNCc2cccc(-n3cccn3)n2)c2ccc(F)cc2)cc1 | 151
O=C(c1ccc(Cl)c(Cl)c1)N1CCC(CNCc2cccc(-c3cccs3)n2)CC1 | 1.38
CN(C)c1cccc(CNCC2CCN(C(=O)c3ccc(Cl)c(Cl)c3)CC2)n1 | 1.41
O=C(c1ccc(Cl)c(Cl)c1)N1CCC(CNCCc2cccnc2)CC1 | 933
CNc1cccc(CNCC2CCN(C(=O)c3ccc(Cl)c(Cl)c3)CC2)n1 | 1.74
O=C(c1ccc(Cl)c(Cl)c1)N1CCC(CNCc2cccc(-c3cc[nH]n3)n2)CC1 | 0.537
O=C(c1ccc(Cl)c(Cl)c1)N1CCC(CNCc2ccccn2)CC1 | 26.3

More lines, in order of falling Ki, values ahead:

Ki [nM] | SMILES
417 | O=C(c1ccc(Cl)c(Cl)c1)N1CCC(CNCc2cccnc2)CC1
295 | O=C(c1ccc(Cl)c(Cl)c1)N1CCC(CNCc2cccc(-n3cccc3)c2)CC1
170 | CN(CCCCNCc1cccc(-n2cccn2)n1)C(=O)c1ccccc1
100 | O=C(c1cccc(Cl)c1Cl)N1CCC(CNCc2cccc(-n3cccn3)n2)CC1
75.9 | CN(C)c1cccc(CNCC2CCN(C(=O)c3ccc(Cl)c(Cl)c3)CC2)c1
49 | O=C(c1ccc(Cl)cc1)N1CCC(CNCc2cccc(-n3cccn3)n2)CC1
29.5 | O=C(C1CCCCC1)N1CCC(CNCc2cccc(-n3cccn3)n2)CC1
17.8 | N#Cc1cccc(C(=O)N2CCC(CNCc3cccc(-n4cccn4)n3)CC2)c1
17.8 | Clc1ccc(CN2CCC(CNCc3cccc(-n4cccn4)n3)CC2)cc1Cl
14.1 | Cc1cccc(C(=O)NCCCCNCc2cccc(-n3cccn3)n2)c1
13.5 | O=C(c1cccc(F)c1)N1CCC(CNCc2cccc(-n3cccn3)n2)CC1
10.7 | CCOc1cccc(C(=O)N2CCC(CNCc3cccc(-n4cccn4)n3)CC2)c1
9.12 | COc1ccc(C(=O)N2CCC(CNCc3cccc(-n4cccn4)n3)CC2)cc1Cl
8.91 | O=C(c1ccc(Cl)c(Cl)c1)N1CCC(CNCc2cccc(F)n2)CC1
3.55 | O=C(c1cccc(C(F)(F)F)c1)N1CCC(CNCc2cccc(-n3cccn3)n2)CC1
3.47 | Cc1cccc(C(=O)N2CCC(CNCc3cccc(-n4cccn4)n3)CC2)c1
3.47 | COc1cccc(CNCC2CCN(C(=O)c3ccc(Cl)c(Cl)c3)CC2)n1
2.69 | O=C(c1ccc(Cl)c(Cl)c1)N1CCC(CNCc2cccc(-c3ncc[nH]3)n2)CC1
1.66 | O=C(c1ccc(Cl)c(Cl)c1)N1CCC(CNCc2cccc(-n3cccn3)n2)CC1
0.724 | O=C(c1ccc(Cl)c(Cl)c1)N1CCC(CNCc2cccc(-c3ccco3)n2)CC1
0.372 | O=C(c1ccc(Cl)c(Cl)c1)N1CCC(CNCc2cccc(N3CCC3)n2)CC1
0.347 | O=C(c1ccc(Cl)c(Cl)c1)N1CCC(CNCc2cccc(-c3nccs3)n2)CC1
